Data as given in patent US20260263593A1, “ALLERGY ANTIGEN AND EPITOPE THEREOF” (HOYU CO., LTD., priority 2018, published 2026).

test system: IgE antibody present in the serum of a shrimp-allergic patient; experiment: Epitope mapping (1): array of overlapping 15-amino-acid peptides, chemiluminescence; type: binding, human; conditions: 15-amino-acid peptide array; serum of 37 patients; difference from N2nd value of 5 non-shrimp-allergic subjects at least 35,000
Procedure: Epitope mapping was carried out using a library of overlapping peptides (length: 15 amino acids) corresponding to the amino acid sequences identified as allergy components of shrimp and the amino acid sequence of arginine kinase. Specifically, the library of overlapping peptides was prepared on the basis of the amino acid sequences of SEQ ID NOs: 117, 141, 146, 2, 45, 87, 276, 161, 230, 179, 362, 381, 399, 421, 455, 481, 486, 520, 541, 300 and 306, and arginine kinase.
The peptides to be synthesized were shifted by 10 amino acids.
For preparation of peptide arrays, the Intavis CelluSpots™ technique was used. Specifically, the peptide arrays were prepared by the following procedure: (1) synthesizing peptides of interest on amino-modified cellulose disks using an automated chemical synthesis apparatus (Intavis MultiPep RS), (2) dissolving the amino-modified cellulose disks to obtain a cellulose-bound peptide solution, and (3) spotting the cellulose-bound peptides onto coated glass slides. The details of each procedure are as described below.
Peptide synthesis was carried out in incremental steps through 9-fluorenylmethoxycarbonyl (Fmoc) chemical reaction on amino-modified cellulose disks in 384-well synthesis plates. Specifically, amino acids in which a Fmoc group is bonded to an amino group were activated in a solution of N,N′-diisopropylcarbodiimide (DIC) and 1-hydroxybenzotriazole (HOBt) in dimethylformamide (DMF) and added dropwise to the cellulose disks so that the Fmoc group-bound amino acids were bound to the amino groups on the cellulose disks (coupling). Unreacted amino groups were capped with acetic anhydride and washed with DMF. Furthermore, the Fmoc groups were eliminated from the amino groups of the amino acids bound to the amino groups on the cellulose disks by treatment with piperidine and washing with DMF. The amino acids bound to the amino groups on the cellulose disks were repetitively subjected to the coupling, the capping, and the Fmoc group elimination described above to elongate the amino terminus for peptide synthesis.
The peptides-bound cellulose disks of interest obtained above in the subsection titled “(1) Synthesis of peptide” were transferred to 96-well plates and treated with a side chain deprotection mixed solution of trifluoroacetic acid (TFA), dichloromethane, triisopropylsilane (TIPS), and water for deprotection of amino acid side chains. Then, the deprotected cellulose-bound peptides were dissolved in a mixed solution of TFA, trifluoromethanesulfonic acid (TFMSA), TIPS, and water and precipitated in tetrabutyl methyl ether (TBME), and the precipitate was resuspended in dimethyl sulfoxide (DMSO) and mixed with a mixed solution of NaCl, sodium citrate, and water to obtain a peptide solution for slide spotting.
The peptide solution for slide spotting obtained above in the subsection titled “(2) Dissolution of amino-modified cellulose disk” was spotted onto Intavis CelluSpots™ slides using Intavis Slide Spotting Robot, and the slides were dried to prepare peptide arrays.
The presence or absence of binding, to each peptide fragment, of an IgE antibody present in the serum of a shrimp-allergic patient was measured through antigen-antibody reaction using the peptide arrays. […]

With “E1: common 15-residue IgE-binding epitope sequence of polypeptide (E1), myosin heavy chain type 1-derived (ADIEVYLLEKARVIS; VAR_SEQ 1..15 epitope) [Epitope E1]” as the substance, how does the “Peptide bound to an IgE antibody in serum in a patient-specific manner” value read?
The value was “bound to an IgE antibody in serum in a patient-specific manner”.

For “E3: common 15-residue IgE-binding epitope sequence of polypeptide (E3), myosin heavy chain type 1-derived (GYKDQLANLMKTLNA; VAR_SEQ 1..15 epitope) [Epitope E3]”, which “Peptide bound to an IgE antibody in serum in a patient-specific manner” value is on record?
The value was “bound to an IgE antibody in serum in a patient-specific manner”.

test system: IgE antibodies from patients having allergies to each food; experiment: Confirmation of epitope cross-reactivity by ELISA with N-terminally biotinylated peptides; type: binding, human; conditions: serum of allergic patient versus nonallergic subject
Procedure: The binding activity of peptides comprising the amino acid sequences described in the column “Synthesis sequence” and the rightmost column “SEQ ID NO” of Table 3 against IgE antibodies from patients having allergies to each food described in the column “Food with which cross-reactivity was confirmed” in Tables 3-1 to 3-50 was confirmed by ELISA. The peptides were synthesized such that the peptides were N-terminally biotinylated by the Fmoc method.
To be specific, ELISA was carried out according to the following procedure. • (1) The concentrations of the biotinylated peptides were adjusted to 10 μg/mL with PBST (0.1% Tween 20). • (2) Each peptide solution was added at 20 μL to each well of a 384-well plate coated with streptavidin, and shaken at room temperature for one hour. After collection of the solution, the wells were washed with PBS five times. • (3) Pierce Protein-Free (PBS) Blocking Buffer (produced by Thermo) was added at 40 μL thereto and shaken at room temperature for one hour. After removal of the solution, the wells were washed with PBST five times. • (4) 2% serum/Canget SignalSolution I (produced by TOYOBO) was added at 20 μL thereto and shaken at room temperature for one hour. After removal of the solution, the wells were washed with PBST five times. • (5) A diluted secondary antibody solution (1:10000, Canget SignalSolution II (produced by TOYOBO)) was added at 20 μL thereto and shaken at room temperature for one hour. After removal of the solution, the wells were washed with PBST five times. • (6) 1-Step Ultra TMB-ELISA (produced by Thermo) was added at 20 μL thereto and shaken at room temperature for 15 minutes. • (7) 2 M H2SO4 was added at 20 μL thereto. Absorbance at 450 nm was measured.
Peptides having these amino acid sequences were prepared by the same procedure as described in Example 4(A), and the presence or absence of binding thereto of IgE antibodies present in the serum of an allergic patient and the serum of a nonallergic subject was measured. The serum of two nonallergic subjects was measured, and values obtained by dividing the measurement values by an average value thereof were described.
The ordinate of each figure depicts “absorbance of the allergic patient/absorbance of the nonallergic patient (healthy subject)”. Different contrasts of two bar graphs for the same sequences mean separate patients. For example, graph No. 8 and No. 10 in FIG. 7 are results about different patients as to peptides having the same sequences. The names of the cooking ingredients described in each graph are the names of cooking ingredients containing a polypeptide comprising an amino acid sequence serving as the basis of each synthetic sequence used.

Which Epitope cross-reactivity does the source give for “SEQ ID NO: 595: polypeptide consisting of 4 amino acid residues, epitope sequence of polypeptide (E5) (MEEL; VAR_SEQ 1..4 epitope)” here?
Its Epitope cross-reactivity is “confirmed in many samples”.

How did the Epitope cross-reactivity turn out when “SEQ ID NO: 593: polypeptide consisting of 4 amino acid residues, epitope sequence of polypeptide (E4) (TLLEPE; VAR_SEQ 1..6 epitope)” was run?
The Epitope cross-reactivity was “confirmed in many samples”.

Which Epitope cross-reactivity does the source give for “SEQ ID NO: 655: polypeptide consisting of 4 amino acid residues, epitope sequence of polypeptide (E11) (KNAK; VAR_SEQ 1..4 epitope)” here?
The Epitope cross-reactivity was “confirmed in many samples”.

With “SEQ ID NO: 662: polypeptide consisting of 4 amino acid residues, epitope sequence of polypeptide (E11) (NAKR; VAR_SEQ 1..4 epitope)” as the substance, how does the Epitope cross-reactivity read?
The Epitope cross-reactivity was “confirmed in many samples”.

For “SEQ ID NO: 636: polypeptide consisting of 4 amino acid residues, epitope sequence of polypeptide (E9) (SQKE; VAR_SEQ 1..4 epitope)”, which Epitope cross-reactivity is on record?
The Epitope cross-reactivity was “confirmed in many samples”.

For “SEQ ID NO: 587: polypeptide consisting of 4 amino acid residues, epitope sequence of polypeptide (E4) (ELEE; VAR_SEQ 1..4 epitope)”, which Epitope cross-reactivity is on record?
The Epitope cross-reactivity was “confirmed in many samples”.
